Results as given in PubChem BioAssay AID1963853 (Molecular Pharmacology Branch, DTP, NCI, 2024).

Tested on: 266295-075-R-J1-PDC spheroid viability
Experiment: Anticancer human tumor 266295-075-R-J1-PDC patient-derived head and neck squamous carcinoma cell line growth inhibition [POLQ]
Conditions: spheroids with HUVEC and MSC; for IC50: curve of first compound; for viability, T/C: stronger effect = lower value
Procedure, shortened: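 Patient-derived tumour cells were co-cultured with HUVEC and mesenchymal stem cells as multicellular spheroids at 37 °C. They were treated with POLQ inhibitors (novobiocin, ART-558, RP6685) alone or combined with other agents. Top concentrations were at or near clinical Cmax (otherwise 10 microM; SN-38 at 1 microM), decreasing in half-log steps.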

[1] = second compound 0.0316 µM, first compound 0.0316 µM
[2] = second compound 0.0316 µM, first compound 0.1 µM
[3] = second compound 0.0316 µM, first compound 0.316 µM
[4] = second compound 0.0316 µM, first compound 1 µM
[5] = second compound 0.0316 µM, first compound 3.16 µM
[6] = second compound 0.0316 µM, first compound 10 µM
[7] = second compound 0.1 µM, first compound 0.0316 µM
[8] = second compound 0.1 µM, first compound 0.1 µM
[9] = second compound 0.1 µM, first compound 0.316 µM
[10] = second compound 0.1 µM, first compound 1 µM
[11] = second compound 0.1 µM, first compound 3.16 µM
[12] = second compound 0.1 µM, first compound 10 µM
[13] = second compound 0.316 µM, first compound 0.0316 µM
[14] = second compound 0.316 µM, first compound 0.1 µM
[15] = second compound 0.316 µM, first compound 0.316 µM
[16] = second compound 0.316 µM, first compound 1 µM
[17] = second compound 0.316 µM, first compound 3.16 µM
[18] = second compound 0.316 µM, first compound 10 µM
[19] = second compound 1 µM, first compound 0.0316 µM
[20] = second compound 1 µM, first compound 0.1 µM
[21] = second compound 1 µM, first compound 0.316 µM
[22] = second compound 1 µM, first compound 1 µM
[23] = second compound 1 µM, first compound 3.16 µM
[24] = second compound 1 µM, first compound 10 µM
[25] = second compound 3.16 µM, first compound 0.0316 µM
[26] = second compound 3.16 µM, first compound 0.1 µM
[27] = second compound 3.16 µM, first compound 0.316 µM
[28] = second compound 3.16 µM, first compound 1 µM
[29] = second compound 3.16 µM, first compound 3.16 µM
[30] = second compound 3.16 µM, first compound 10 µM
[31] = second compound 10 µM, first compound 0.0316 µM
[32] = second compound 10 µM, first compound 0.1 µM
[33] = second compound 10 µM, first compound 0.316 µM
[34] = second compound 10 µM, first compound 1 µM
[35] = second compound 10 µM, first compound 3.16 µM
[36] = second compound 10 µM, first compound 10 µM
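Note: spheroids exposed to compounds for seven days before readout.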

COc1cc(C2c3cc4c(cc3C(OC3OC5COC(C)OC5C(O)C3O)C3COC(=O)C23)OCO4)cc(OC)c1O (stereo unspecified) + COC1C(OC(N)=O)C(O)C(Oc2ccc3c(O)c(NC(=O)c4ccc(O)c(CC=C(C)C)c4)c(=O)oc3c2C)OC1(C)C
IC50 (second compound 0.0316 µM): > 10 µM | IC50 (second compound 0.1 µM): > 10 µM | IC50 (second compound 0.316 µM): > 10 µM | IC50 (second compound 1 µM): > 10 µM | IC50 (second compound 3.16 µM): > 10 µM | IC50 (second compound 10 µM): > 10 µM | viability, T/C [1]: 81.4% | viability, T/C [2]: 118% | viability, T/C [3]: 93.5% | viability, T/C [4]: 89.6% | viability, T/C [5]: 89.1% | viability, T/C [6]: 76.9% | viability, T/C [7]: 88.7% | viability, T/C [8]: 105% | viability, T/C [9]: 110% | viability, T/C [10]: 83.2% | viability, T/C [11]: 85.1% | viability, T/C [12]: 77.4% | viability, T/C [13]: 90.1% | viability, T/C [14]: 98.5% | viability, T/C [15]: 89.8% | viability, T/C [16]: 87% | viability, T/C [17]: 83.3% | viability, T/C [18]: 82% | viability, T/C [19]: 101% | viability, T/C [20]: 92.1% | viability, T/C [21]: 86.3% | viability, T/C [22]: 96.9% | viability, T/C [23]: 91.1% | viability, T/C [24]: 72.2% | viability, T/C [25]: 102% | viability, T/C [26]: 91.2% | viability, T/C [27]: 114% | viability, T/C [28]: 94.7% | viability, T/C [29]: 99% | viability, T/C [30]: 83% | viability, T/C [31]: 116% | viability, T/C [32]: 116% | viability, T/C [33]: 120% | viability, T/C [34]: 92.4% | viability, T/C [35]: 110% | viability, T/C [36]: 80.5%

COc1cccc2c1C(=O)c1c(O)c3c(c(O)c1C2=O)CC(O)(C(=O)CO)CC3OC1CC(N)C(O)C(C)O1 (stereo unspecified) + COC1C(OC(N)=O)C(O)C(Oc2ccc3c(O)c(NC(=O)c4ccc(O)c(CC=C(C)C)c4)c(=O)oc3c2C)OC1(C)C
IC50 (second compound 0.0316 µM): 3.17 µM | IC50 (second compound 0.1 µM): 2.56 µM | IC50 (second compound 0.316 µM): 3.45 µM | IC50 (second compound 1 µM): 2.64 µM | IC50 (second compound 3.16 µM): 2.16 µM | IC50 (second compound 10 µM): 3.72 µM | viability, T/C [1]: 95.5% | viability, T/C [2]: 104% | viability, T/C [3]: 82.4% | viability, T/C [4]: 75.8% | viability, T/C [5]: 51.8% | viability, T/C [6]: 2.47% | viability, T/C [7]: 107% | viability, T/C [8]: 96% | viability, T/C [9]: 74.2% | viability, T/C [10]: 74.7% | viability, T/C [11]: 50.4% | viability, T/C [12]: 2.16% | viability, T/C [13]: 102% | viability, T/C [14]: 96% | viability, T/C [15]: 76.7% | viability, T/C [16]: 74.8% | viability, T/C [17]: 61.4% | viability, T/C [18]: 2.49% | viability, T/C [19]: 103% | viability, T/C [20]: 91.4% | viability, T/C [21]: 77% | viability, T/C [22]: 64.6% | viability, T/C [23]: 57.5% | viability, T/C [24]: 2.7% | viability, T/C [25]: 98.8% | viability, T/C [26]: 90.4% | viability, T/C [27]: 78.4% | viability, T/C [28]: 68.7% | viability, T/C [29]: 42.3% | viability, T/C [30]: 2.41% | viability, T/C [31]: 99.5% | viability, T/C [32]: 83.1% | viability, T/C [33]: 83.1% | viability, T/C [34]: 75% | viability, T/C [35]: 62.2% | viability, T/C [36]: 1.87%

O=c1[nH]cc(F)c(=O)[nH]1 + COC1C(OC(N)=O)C(O)C(Oc2ccc3c(O)c(NC(=O)c4ccc(O)c(CC=C(C)C)c4)c(=O)oc3c2C)OC1(C)C
IC50 (second compound 0.0316 µM): > 10 µM | IC50 (second compound 0.1 µM): > 10 µM | IC50 (second compound 0.316 µM): > 10 µM | IC50 (second compound 1 µM): > 10 µM | IC50 (second compound 3.16 µM): > 10 µM | IC50 (second compound 10 µM): > 10 µM | viability, T/C [1]: 103% | viability, T/C [2]: 86.2% | viability, T/C [3]: 93.1% | viability, T/C [4]: 107% | viability, T/C [5]: 96.1% | viability, T/C [6]: 100% | viability, T/C [7]: 106% | viability, T/C [8]: 110% | viability, T/C [9]: 86.8% | viability, T/C [10]: 93.6% | viability, T/C [11]: 89% | viability, T/C [12]: 103% | viability, T/C [13]: 103% | viability, T/C [14]: 106% | viability, T/C [15]: 97.3% | viability, T/C [16]: 97.3% | viability, T/C [17]: 91.7% | viability, T/C [18]: 89% | viability, T/C [19]: 94.2% | viability, T/C [20]: 122% | viability, T/C [21]: 93.2% | viability, T/C [22]: 111% | viability, T/C [23]: 90.6% | viability, T/C [24]: 89.9% | viability, T/C [25]: 112% | viability, T/C [26]: 93.5% | viability, T/C [27]: 108% | viability, T/C [28]: 97.8% | viability, T/C [29]: 105% | viability, T/C [30]: 90.5% | viability, T/C [31]: 102% | viability, T/C [32]: 103% | viability, T/C [33]: 96.2% | viability, T/C [34]: 103% | viability, T/C [35]: 98.7% | viability, T/C [36]: 78.9%
